From US7671069B2, “Tricyclic, heteroaromatic compounds modulating CXCR4 and/ or CXCR7” (ChemoCentryx, Inc., priority 2006, dated 2010)

Experiments:
CCXCKR2 (CXCR7) = biological target: T1, CCXCKR2 (CXCR7) (Homo sapiens, UniProt P25106); assay: Displacement of 125I SDF-1 from CCXCKR2 (CXCR7) on MCF-7 and/or MDA-MB-435S cells; type: binding; conditions: second activity CXCR4/CXCR7
T1 construct: expressed in transfected cells; host or cells: MDA-MB-435S transfected with pcDNA3.1(+)-hRDC1 (G418 selected) and/or MCF-7 (endogenous receptor)
Protocol: The ability of the compounds to displace the labeled chemokine from the CCXCKR2 receptor sites at multiple concentrations was then determined with the screening process.
Reagents and Cells. […] SDF-1 was purchased from Perkin-Elmer Life Sciences, Inc. (Boston, Mass.). The MCF-7 (adenocarcinoma; mammary gland) cell line was obtained from the American Type Culture Collection (Manassas, Va.) or and was cultured in DMEM (Mediatech, Herudon, Va.) supplemented with 10% fetal bovine serum (FBS) (HyClone Logan, Utah) and bovine insulin (0.01 mg/mL) (Sigma, St. Louis, Mo.) at 37° C. in a humidified incubator at a 5% CO2/air mixture. CCXCKR2 transfected MDA-MB-435S were produced as described below. MDA-MB-435S human breast cancer line, was purchased from ATCC, and cultured in DMEM/10% FBS medium. The complete coding sequence of the gene encoding CCXCKR2 (a.k.a.CXCR7, hRDC1), was isolated from MCF-7 cells using μMACs mRNA isolation kit (Miltenyi Biotec, Auburn, Calif.). DNA contamination was removed by DNase digestion via RNeasy columns (Qiagen, Inc., Valencia, Calif.) and cDNA was generated using GeneAmp RNA PCR Core Kit (Applied Biosystems, Foster City, Clif.). PCR of cDNA samples was performed using Taq PCR Master Mix kit (Qiagen, Inc.) and hRDC1 primers harboring 5′ and 3′ Not I sites (hRDC1F 5′ […]-3′ (SEO ID NO:11), hRDC1R 5′-[…]-3′ (SEO ID NO: 12)) Not I digested PCR product was ligated into Not I digested pcDNA3.1 (+)(Invitrogen, Carlsbad, Calif.) and screened for orientation and sequence confirmed. Plasmid DNA was then isolated from overnight bacterial cultures by Maxiprep (Qiagen, Inc.). Plasmid DNA (10μg) was added to MDA-MB-435s cells and cells were electroporated (0.22 kV, 960uF) via Gene Pulser (Biorad laboratories, Hercules, Calif.). 48 hr post-electroporation, cells were transferred to selection medium (1000 ug/ml G418).
Binding Analysis. Target compounds were tested to determine their ability to bind with CCXCKR2 sites on MCF-7 and/or MDA-MB-435S cells. Efficiency-maximized radioligand binding using filtration protocols as described in Dairaghi D J, et al., HHV8-encoded vMIP-I selectively engages chemokine receptor CCR5. Agonist and antagonist profiles of viral chemokines, J. Biol. Chem. Jul. 30, 1999; 274(31): 21569-74 and Gosling J, et al., Cutting edge: identification of a novel chemokine receptor that binds dendritic cell-i and T cell-active chemokines including ELC, SLC, and TECK., J. Immunol. Mar. 15, 2000; 164(6):2851-6 was used.
In these assays, MCF-7 and/or MDA-MB-435S cells were interrogated with the target compounds and the ability of these compounds to displace ^125I radiolabeled SDF-1 was assessed using the protocol described in Dairaghi and Gosling. The target compounds were added to the plate to the indicated concentration and were then incubated with cells followed by the addition of radiolabeled chemokine (^125I SDF-1) for 3 hr at 4° C. in the following binding medium (25 mM HEPES, 140 mM NaCl, 1 mM CaCl2, 5 mM MgCl2 and 0.2% bovine serum albumin, adjusted to pH 7.1). All assays were then incubated for 3 hrs at 4° C. with gentle agitation. Following incubation in all binding assays, reactions were aspirated onto PEI-treated GF/B glass filters (Packard) using a cell harvester (Packard) and washed twice (25 mM HEPES, 500 mM NaCl, 1 mM CaCl2, 5 mM MgCl2, adjusted to pH 7.1). Scintillant (MicroScint 10, Packard) was added to the wells, and the filters were counted in a Packard Topcount scintillation counter. Data were analyzed and plotted using Prism (GraphPad Prism version 3.0a for Macintosh, GraphPad Software, www.graphpad.com).

CXCR4 = biological target: T2, CXCR4 (Homo sapiens, UniProt P61073); assay: Inhibition of SDF-1 ligand binding or chemotaxis assay for CXCR4; conditions: first (or only) activity listed in CXCR4/CXCR7; chemotaxis assay or binding assays
T2 construct: endogenous in cells; host or cells: CEM-Nkr, CCRF-CEM (ATCC #CCL-119), Jurkat (ATCC #TIB-152), Molt-4 (ATCC# CRL-1582); IL-2 stimulated lymphocytes from human blood
Protocol: CEM-Nkr, CCRF-CEM (ATCC #CCL-119), Jurkat (ATCC #TIB-152), Molt-4 (ATCC# CRL-1 582), cell lines, all endogenously expressing CXCR4, were used in compound screening and subsequent assays. These cell lines were cultured as a suspension in RPMI-1640 medium supplemented with 2 mM L-glutamine, 1.5 g/L sodium bicarbonate, 4.5 g/L glucose, 10 mM HEPES, 1 mM sodium pyruvate, and 10% FBS. Cells were grown under 5% CO2/95% air, 100% humidity at 37° C. and subcultured twice weekly at 1:6 (cells were cultured at a density range of 1×10^5 to 2×10^6 cells/mL) and harvested at 1×10^6 cells/mL.
Il-2 stimulated lymphocytes were isolated from fresh human blood using density separation and centrifigation. Briefly, whole blood is incubated with equal parts 3% dextran and allowed to separate for 45 minutes. After separation, the top layer is then layered on top of 15 mls of Ficoll (15 mls of Ficoll for every 30 mls of blood suspension) and centrifuged for 30 minutes at 400×g with no brake. The pellet at the bottom of the tube is then isolated and resuspended into PharmLyse RBC Lysis Buffer (BD Biosciences, San Jose, Calif.) after which the sample is again centrifuged for 10 minutes at 400×g with brake. The remaining cell pellet is resuspended as appropriate and stimulated with PHA for 2 days, followed by culturing in the presence of human IL-2 cytokine.
Cells were centrifuged and resuspended in assay buffer (20 mM HEPES pH 7.1, 140 mM NaCl, 1 mM CaCl2, 5 mM MgCl2, and with 0.2% bovine serum albumin) to a concentration of 4×10^6 cells/mL for cell lines. Binding assays were set up as follows. 0.15 mL of cells (6×10^5 cells/well) was added to the assay plates containing the compounds, giving a final concentration of ˜2-10 μM each compound for screening (or part of a dose response for compound IC50 determinations). Then 0.1 mL of ^125I labeled SDF-1α (obtained from Perkin Elmer Life Sciences, Boston, Mass.) diluted in assay buffer to a final concentration of ˜[…], yielding ˜30,000 cpm per well, was added, the plates sealed and incubated for approximately 3 hours at 4° C. on a shaker platform. Reactions were aspirated onto GF/B glass filters pre-soaked in 0.3% polyethyleneimine (PEI) solution, on a vacuum cell harvester (Packard Instruments; Meriden, Conn.). Scintillation fluid (40 μl; Microscint 20, Packard Instruments) was added to each well, the plates were sealed and radioactivity measured in a Topcount scintillation counter (Packard Instruments). Control wells containing either diluent only (for total counts) or excess SDF1a (1 μg/mL, for non-specific binding) were used to calculate the percent of total inhibition for compound. The computer program Prism from Graph Pad, Inc. (San Diego, Calif.) was used to calculate IC50 values. IC50 values are those concentrations required to reduce the binding of radiolabeled SDF-1α to the receptor by 50%. (For further descriptions of ligand binding and other functional assays, see Dairaghi, et al., J. Biol. Chem. 274:21569-21574 (1999), Penfold, et al., Proc. Natl. Acad. Sci. USA. 96:9839-9844 (1999), and Dairaghi, et al,. J. Biol. Chem. 272:28206-28209 (1997)).
Chemotaxis assays were performed using 5 μm pore polycarbonate, polyvinylpyrrolidone-coated filters in 96-well chemotaxis chambers (Neuroprobe; Gaithersburg, Md.) using chemotaxis buffer (Hank's balanced salt solution (HBSS) and 1% FBS). CXCR4 ligand (i.e., SDF1a, R&D Systems; Minneapolis, Minn.) are use to evaluate compound mediated inhibition of CXCR4 mediated migration. Other chemokines (i.e., TECK; R&D Systems; Minneapolis, Minn.) are used as specificity controls. The lower chamber was loaded with 29 μl of chemokine (i.e., 0.1 nM SDF1a); the top chamber contained 50,000 Jurkat cells or IL-2 lymphocytes in 20 μl. […]

T2 sequence (P61073 whole entry): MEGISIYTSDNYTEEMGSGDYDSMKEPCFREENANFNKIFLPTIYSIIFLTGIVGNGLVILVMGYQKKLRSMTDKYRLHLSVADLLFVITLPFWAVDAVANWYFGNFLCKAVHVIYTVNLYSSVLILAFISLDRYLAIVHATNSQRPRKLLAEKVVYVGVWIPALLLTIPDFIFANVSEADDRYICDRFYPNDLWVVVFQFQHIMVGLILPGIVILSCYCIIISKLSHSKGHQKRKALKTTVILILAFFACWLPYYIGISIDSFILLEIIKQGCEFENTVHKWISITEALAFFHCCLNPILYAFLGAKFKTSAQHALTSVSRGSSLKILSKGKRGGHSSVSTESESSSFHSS
T1 sequence (P25106 whole entry): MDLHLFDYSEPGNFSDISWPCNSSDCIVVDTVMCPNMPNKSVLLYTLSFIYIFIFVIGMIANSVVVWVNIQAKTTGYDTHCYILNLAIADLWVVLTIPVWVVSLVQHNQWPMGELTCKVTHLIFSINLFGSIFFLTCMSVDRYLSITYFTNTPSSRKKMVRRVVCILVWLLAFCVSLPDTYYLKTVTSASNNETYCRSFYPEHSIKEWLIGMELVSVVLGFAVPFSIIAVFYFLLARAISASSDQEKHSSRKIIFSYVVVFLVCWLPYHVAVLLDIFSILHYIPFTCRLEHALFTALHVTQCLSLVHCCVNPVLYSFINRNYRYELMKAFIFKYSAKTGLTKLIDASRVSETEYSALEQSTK

| IC50 (CCXCKR2 (CXCR7)) | IC50 (CXCR4) | SMILES |
| --- | --- | --- |
| < 1000 nM | < 1000 nM | COc1ccc2oc(=O)c3cnn(CC(=O)NCCN(C)C4CCCCC4)c3c2c1 [Compound 24] |
| < 1000 nM | 1000 to 10000 nM | COc1ccc2c(c1)c1c(cnn1CC(=O)NCCN(C)C1CCCCC1)c(=O)n2C [Compound 30] |
| < 1000 nM | > 10000 nM | COc1ccc2c(c1)c1c(cnn1CC(=O)NCCNC1CCCCC1)c(=O)n2C [Compound 31] |
| < 1000 nM | 1000 to 10000 nM | COc1ccc2c(c1)c1c(cnn1CC(=O)NCCN(C)C1CCCCCCC1)c(=O)n2C [Compound 32] |
